{
  "source": "paper PMC7269146",
  "about": "“Jingzhaotoxin-X, a gating modifier of Kv4.2 and Kv4.3 potassium channels purified from the venom of the Chinese tarantula Chilobrachys jingzhao” (The Journal of Venomous Animals and Toxins Including …, 2020)",
  "target": "T1, Kv4.2 (Rattus norvegicus, UniProt Q63881)",
  "T1 construct": "expressed in transfected cells; host or cells: HEK293t",
  "T1 sequence (Q63881 1-630)": "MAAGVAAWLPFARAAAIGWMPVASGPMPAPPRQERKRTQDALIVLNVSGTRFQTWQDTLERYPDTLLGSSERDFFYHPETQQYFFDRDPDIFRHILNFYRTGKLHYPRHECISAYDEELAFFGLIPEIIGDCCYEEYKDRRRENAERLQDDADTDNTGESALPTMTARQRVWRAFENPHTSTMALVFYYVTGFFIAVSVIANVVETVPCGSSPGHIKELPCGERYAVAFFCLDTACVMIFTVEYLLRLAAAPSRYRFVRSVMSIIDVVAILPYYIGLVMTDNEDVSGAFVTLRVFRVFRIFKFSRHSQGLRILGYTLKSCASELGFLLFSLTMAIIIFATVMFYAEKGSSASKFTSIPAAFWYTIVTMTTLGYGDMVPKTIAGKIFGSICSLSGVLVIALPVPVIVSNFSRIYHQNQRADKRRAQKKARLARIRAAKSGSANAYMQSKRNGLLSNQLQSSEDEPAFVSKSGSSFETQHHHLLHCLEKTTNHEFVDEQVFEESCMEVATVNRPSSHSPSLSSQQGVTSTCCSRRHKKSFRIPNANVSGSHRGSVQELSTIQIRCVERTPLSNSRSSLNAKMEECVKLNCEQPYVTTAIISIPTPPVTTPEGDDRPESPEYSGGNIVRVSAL",
  "test": "paired-pulse protocol, recovery from inactivation of Kv4.2",
  "format": "cell-based",
  "conditions": "n = 7",
  "source_text": "Rat cDNA genes encoding Kv4.2 (Accession: NM_031730.2) and Kv4.3 (Accession: AB003587.1) were subcloned to vector pcDNA3.1. In addition, human cDNA genes encoding Nav1.7 (Accession: DQ857292.1) and Nav1.5 (Accession: AB158469.2) were subcloned to vectors pcDNA3.1-mod and pcDNA3.1, separately. Then, Kv4.2, Kv4.3, Nav1.5 and Nav1.7 constructs were transiently transfected into the human embryonic kidney 293t (HEK293t) cells using lipofectamine 2000 (Invitrogen, USA) in accordance with manufacturer protocols. Thereafter, HEK293 cells were inoculated within Dulbecco’s modified Eagle’s medium (DMEM) containing 10% fetal bovine serum (FBS) at 5% CO2 and 37°C. The Kv4.3 channel and the Kv4.2 counterpart were then transfected in the absence of β subunit. Subsequently, cells were incubated with a DNA-lipofectamine mixture (one reporter plasmid for green fluorescence protein and channel constructs) for 4-6 h, and were washed with the fresh medium. […]\nFigure 7. […] Thereafter, those elicited peak currents in test pulses were determined and standardized based on the peak currents for conditioning pulses within the identical cell. […] ( B ) The standardized recovery data were expressed as mean ± S.E. (n = 7), plotted as a function of inter-pulse interval, and fitted to one singular exponential function.",
  "note": "Where a SMILES comes first, the peptide text is derived from it. Bridges are numbered along the chain shown (N, C = ends).",
  "data": [
    {"compound": "CC(C)C[C@@H]1NC(=O)[C@H](CCCCN)NC(=O)[C@H](Cc2ccc(O)cc2)NC(=O)[C@@H]2CSSC[C@@H]3NC(=O)[C@H](Cc4ccc(O)cc4)NC(=O)[C@H](Cc4ccccc4)NC(=O)CNC(=O)[C@H](C)NC(=O)[C@H](CSSC[C@H](NC(=O)[C@@H](N)CC(C)C)C(=O)N[C@@H](CO)C(=O)N[C@@H](CCCNC(=N)N)C(=O)N[C@@H](CCC(=O)O)C(=O)NCC(=O)N[C@@H](CCC(=O)O)C(=O)N[C@@H](Cc4ccccc4)C(=O)N2)NC(=O)[C@H](CSSC[C@@H](C(=O)N[C@@H](Cc2ccc(O)cc2)C(=O)N[C@@H](CCCNC(=N)N)C(=O)N[C@@H](CC(N)=O)C(=O)O)NC(=O)[C@H](Cc2c[nH]cn2)NC(=O)[C@H](CC(C)C)NC(=O)[C@H](C(C)C)NC(=O)[C@H](Cc2ccccc2)NC(=O)[C@H](C)NC(=O)[C@H](CCCCN)NC3=O)NC(=O)[C@H](CCCCN)NC(=O)[C@H](CCCNC(=N)N)NC1=O", "note": "[JZTX-X, Jingzhaotoxin-X] (H-LCSREGEFCYKLRKCCAGFYCKAFVLHCYRN-OH; disulfide 2-16, 9-21, 15-28; N-terminus assumed)", "values": [
      {"measurement": "effect on recovery of Kv4.2", "setting": "paired-pulse protocol", "value": "remarkably accelerated the recovery of Kv4.2 channel inhibition"},
      {"measurement": "time constant of recovery from inactivation, Kv4.2", "setting": "toxin concentration not given, control 195.3 ± 31.6 ms, P<0.05, single exponential", "value": "130.2 ± 25.3", "unit": "ms"}
    ]}
  ]
}
